From US9464064B2, “HCV helicase inhibitors and methods of use thereof” (University of Kansas, priority 2011, dated 2016)

Target: T1, HCV NS3 helicase NS3h_1b(con1) (Hepatitis C virus genotype 1b, UniProt Q9WMX2)
T1 construct: truncated C-terminally His-tagged NS3 proteins lacking the N-terminal protease, called NS3h; His-tag (C); made in house
Test: MBHA screen of NCI mechanistic set library at 20 μM (percent inhibition, compound interference)
Type: biochemical
Settings: compounds at 20 μM; for Inh. (%) (Inhibition): calculated from Equation 1
How it was run: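 Molecular beacon-based DNA unwinding assay; compounds screened at 20 μM in triplicate, with DMSO-only negative and 500 nM dT20 positive controls. Fluorescence (ex 643/em 670 nm) was read before and 30 min after adding ATP to 1 mM. Percent inhibition came from the change relative to DMSO controls; interference from pre-ATP fluorescence versus DMSO controls.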

[1] = MBHA with DNA substrate, assay interference calculated with Equation 2
[2] = assay interference calculated with Equation 2 (fluorescence vs DMSO-only controls before ATP)

T1 sequence (Q9WMX2 1192-1657): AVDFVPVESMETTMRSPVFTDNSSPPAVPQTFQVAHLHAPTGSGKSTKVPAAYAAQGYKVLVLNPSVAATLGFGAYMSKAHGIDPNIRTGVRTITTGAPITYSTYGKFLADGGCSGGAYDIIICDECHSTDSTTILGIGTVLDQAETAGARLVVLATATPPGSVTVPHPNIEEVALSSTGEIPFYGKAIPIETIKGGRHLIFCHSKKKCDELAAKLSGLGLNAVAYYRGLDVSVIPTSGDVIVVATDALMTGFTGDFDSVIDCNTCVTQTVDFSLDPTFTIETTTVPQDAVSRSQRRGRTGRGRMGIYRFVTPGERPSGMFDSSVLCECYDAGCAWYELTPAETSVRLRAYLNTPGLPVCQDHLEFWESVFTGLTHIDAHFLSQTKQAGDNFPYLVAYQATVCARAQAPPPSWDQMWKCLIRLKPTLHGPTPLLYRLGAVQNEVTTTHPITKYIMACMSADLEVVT

COc1ccc2cc1Oc1ccc(cc1)CC1c3c(cc(OC)c4c3Oc3cc5c(cc3O4)CCNC5C2)CCN1C (stereo not drawn) [Compound 181486]
Int.* (Ratio) (Interference) [1]: 0.50 Ratio | Inh. (%) (Inhibition) (MBHA with DNA substrate): 38.3%

CCOC(=O)NC1=C(N2CC2)C(=O)C(NC(=O)OCC)=C(N2CC2)C1=O [Compound 182986]
Int.* (Ratio) (Interference) [1]: 1.18 Ratio | Inh. (%) (Inhibition) (MBHA with DNA substrate): −16.6%

CCC[CH2][Sn]1([CH2]CCC)[S]CC[N]1S(=O)(=O)c1ccc(C)cc1 [Compound 183359]
Int.* (Ratio) (Interference) [1]: 0.83 Ratio | Inh. (%) (Inhibition) (MBHA with DNA substrate): 13.3%

C[C@H]1O[C@@H](c2ccc3c(c2O)C(=O)C2=C(C3=O)[C@@]3(O)C(=O)C[C@](C)(O)C[C@@]3(O)C=C2)C[C@@H](O)[C@@H]1O [Compound 184398]
Inh. (%) (Inhibition) (MBHA with a DNA substrate): −39.0% | Int.* (Ratio) (Interference) [2]: 1.09 Ratio

C[n+]1cc2cc(O)c(O)cc2c2ccc3cc(O)c(O)cc3c21.Cl.[Cl-].c1ccncc1 [Compound 184403]
Int.* (Ratio) (Interference) [1]: 0.42 Ratio | Inh. (%) (Inhibition) (MBHA with DNA substrate): 27.4%

NC(=S)N/N=C/c1ccc(OC(=O)COc2ccccc2Cl)cn1 [Compound 185056]
Inh. (%) (Inhibition) (MBHA with a DNA substrate): 6.8% | Int.* (Ratio) (Interference) [2]: 0.90 Ratio

Oc1ccc(/C=N/NC(=S)Nc2cccnc2)nc1 [Compound 185065]
Inh. (%) (Inhibition) (MBHA with a DNA substrate): −26.6% | Int.* (Ratio) (Interference) [2]: 1.11 Ratio

Cc1cc(C)c(NC(=O)/C=C/c2ccccc2)c(C)c1 [Compound 191384]
Int.* (Ratio) (Interference) [1]: 1.07 Ratio | Inh. (%) (Inhibition) (MBHA with DNA substrate): −1.8%

Cc1ccc(NC(=O)/C=C/c2ccccc2)c(C)c1 [Compound 191389]
Int.* (Ratio) (Interference) [1]: 1.06 Ratio | Inh. (%) (Inhibition) (MBHA with DNA substrate): −2.3%

Cc1c(Cl)cccc1NC(=O)/C=C/c1ccccc1 [Compound 191392]
Int.* (Ratio) (Interference) [1]: 1.10 Ratio | Inh. (%) (Inhibition) (MBHA with DNA substrate): 2.5%

Cc1cccc(Cl)c1NC(=O)/C=C/c1ccccc1 [Compound 191393]
Inh. (%) (Inhibition) (MBHA with a DNA substrate): −6.3% | Int.* (Ratio) (Interference) [2]: 1.05 Ratio

CC[C@@]1(O)C[C@H](O)c2c(O)c3c(c(O)c2[C@H]1C(=O)OC)C(=O)c1cccc(O)c1C3=O [Compound 196524]
Int.* (Ratio) (Interference) [1]: 1.02 Ratio | Inh. (%) (Inhibition) (MBHA with DNA substrate): 3.3%

O=C1OC(c2ccco2)=N/C1=C\c1ccc(Cl)c(Cl)c1 [Compound 202000]
Inh. (%) (Inhibition) (MBHA with a DNA substrate): −5.7% | Int.* (Ratio) (Interference) [2]: 0.99 Ratio

COc1cc2c(c3oc4cccc(O)c4c(=O)c13)[C@@H]1C=CO[C@@H]1O2 [Compound 204985]
Int.* (Ratio) (Interference) [1]: 1.05 Ratio | Inh. (%) (Inhibition) (MBHA with DNA substrate): 5.4%

CC[C@@]1(O)C[C@H](O[C@H]2C[C@H](N(C)C)[C@H](O[C@H]3C[C@H](O)[C@H](O[C@H]4CCC(=O)[C@H](C)O4)[C@H](C)O3)[C@H](C)O2)c2c(cc3c(c2O)C(=O)c2c(O)cccc2C3=O)[C@@H]1C(=O)OC [Compound 208734]
Int.* (Ratio) (Interference) [1]: 0.56 Ratio | Inh. (%) (Inhibition) (MBHA with DNA substrate): 56.5%

CCOC(=O)C(C)NC(=O)N(C)C12CC3CC(CC(C3)C1)C2 (stereo not drawn) [Compound 208913]
Int.* (Ratio) (Interference) [1]: 1.10 Ratio | Inh. (%) (Inhibition) (MBHA with DNA substrate): 0.9%

CCOC(=O)CNC(=O)NC12CC3CC(CC(C3)C1)C2 [Compound 208914]
Inh. (%) (Inhibition) (MBHA with a DNA substrate): −4.1% | Int.* (Ratio) (Interference) [2]: 1.09 Ratio

COc1ccc(C2C=C(c3ccc4c(c3)OCO4)Oc3c2c(=O)oc2ccccc32)cc1OC (stereo not drawn) [Compound 211489]
Inh. (%) (Inhibition) (MBHA with a DNA substrate): −30.1% | Int.* (Ratio) (Interference) [2]: 0.82 Ratio

CC(C)c1oc(=O)cc2c1[C@@H](O)[C@H]1OC(=O)[C@@]3(C)[C@@H](O)[C@H]4O[C@H]4[C@@]2(C)[C@@H]13 [Compound 211500]
Inh. (%) (Inhibition) (MBHA with a DNA substrate): 10.6% | Int.* (Ratio) (Interference) [2]: 0.89 Ratio

O=c1oc2ccccc2cc1-c1ccc([N+](=O)[O-])cc1 [Compound 215989]
Int.* (Ratio) (Interference) [1]: 0.82 Ratio | Inh. (%) (Inhibition) (MBHA with DNA substrate): 21.9%

C[n+]1ccc(Nc2ccc(NC(=O)c3ccc(Nc4cc[n+](C)c5ccc([N+](=O)[O-])cc45)cc3[N+](=O)[O-])cc2)cc1.Cl [Compound 218439]
Int.* (Ratio) (Interference) [1]: 0.46 Ratio | Inh. (%) (Inhibition) (MBHA with DNA substrate): −8.9%

c1ccc2c(NCCCCCCCCNc3c4ccccc4nc4ccccc34)c3ccccc3nc2c1 [Compound 219734]
Int.* (Ratio) (Interference) [1]: 0.26 Ratio | Inh. (%) (Inhibition) (MBHA with DNA substrate): 41.8%

Cc1[nH]c(=O)[nH]c(=O)c1/C=C/C(=O)NC(CO)CC(C)C (stereo not drawn) [Compound 224117]
Int.* (Ratio) (Interference) [1]: 1.01 Ratio | Inh. (%) (Inhibition) (MBHA with DNA substrate): −2.8%

NC(=O)OCc1c(O)c2c(c(O)c1COC(N)=O)C(=O)C=CC2=O [Compound 224124]
Int.* (Ratio) (Interference) [1]: 0.93 Ratio | Inh. (%) (Inhibition) (MBHA with DNA substrate): 37.7%

O=C(O)CC(NC(=O)CP(=O)(O)O)C(=O)O (stereo not drawn) [Compound 224131]
Int.* (Ratio) (Interference) [1]: 0.86 Ratio | Inh. (%) (Inhibition) (MBHA with DNA substrate): 12.3%

CO[C@H]1C[C@@H]2CC[C@@H](C)[C@@](O)(O2)C(=O)C(=O)N2CCCC[C@H]2C(=O)O[C@H]([C@H](C)C[C@@H]2CC[C@@H](O)[C@H](OC)C2)CC(=O)[C@H](C)/C=C(\C)[C@@H](O)[C@@H](OC)C(=O)[C@H](C)C[C@H](C)/C=C/C=C/C=C/1C [Compound 226080]
Int.* (Ratio) (Interference) [1]: 0.90 Ratio | Inh. (%) (Inhibition) (MBHA with DNA substrate): −1.0%

CSCC(CO)NC(=O)/C=C/c1c(C)[nH]c(=O)[nH]c1=O (stereo not drawn) [Compound 233872]
Int.* (Ratio) (Interference) [1]: 1.00 Ratio | Inh. (%) (Inhibition) (MBHA with DNA substrate): 17.4%

O=C([O-])c1ccc(Nc2c3ccccc3nc3ccccc23)cc1.[Na+] [Compound 235082]
Inh. (%) (Inhibition) (MBHA with a DNA substrate): −6.4% | Int.* (Ratio) (Interference) [2]: 1.02 Ratio

COC1C(O)=C2C(=O)OC(C)(O)/C=C/C=C\C=C/C=C/C(c3ccccc3)NC(=O)/C=C/C=C/C=C/C=C/C2(C)C1O (stereo not drawn) [Compound 236657]
Inh. (%) (Inhibition) (MBHA with a DNA substrate): −19.9% | Int.* (Ratio) (Interference) [2]: 0.91 Ratio

COC1/C=C/OC2(C)Oc3c(C)c(O)c4c(c3C2=O)C(=O)C=C(NC(=O)/C(C)=C\C=C\C(C)C(OC=O)C(C)C(O)C(C)C(OC(C)=O)C1C)C4=O (stereo not drawn) [Compound 239375]
Int.* (Ratio) (Interference) [1]: 0.90 Ratio | Inh. (%) (Inhibition) (MBHA with DNA substrate): −18.3%

Cc1cc(N(CC(C)Br)CC(C)Br)ccc1N=Nc1ccccc1C(=O)O (stereo not drawn) [Compound 240419]
Int.* (Ratio) (Interference) [1]: 0.94 Ratio | Inh. (%) (Inhibition) (MBHA with DNA substrate): −2.7%

CCCC[S+]([O-])CC(CO)NC(=O)/C=C\c1c(C)[nH]c(=O)[nH]c1=O (stereo not drawn) [Compound 241509]
Int.* (Ratio) (Interference) [1]: 1.01 Ratio | Inh. (%) (Inhibition) (MBHA with DNA substrate): −2.4%

COc1cc(O)c(Cc2ccccc2O)c(O)c1C(=O)CCc1ccccc1 [Compound 241906]
Inh. (%) (Inhibition) (MBHA with a DNA substrate): −6.2% | Int.* (Ratio) (Interference) [2]: 0.88 Ratio

CC[C@@]1(O)C[C@H](O[C@H]2C[C@H](N(C)C)[C@H](O[C@H]3C[C@@H]4O[C@H]5CC(=O)[C@H](C)O[C@H]5O[C@@H]4[C@H](C)O3)[C@H](C)O2)c2c(cc3c(c2O)C(=O)c2c(O)ccc(O)c2C3=O)[C@H]1C(=O)OC [Compound 243023]
Int.* (Ratio) (Interference) [1]: 0.46 Ratio | Inh. (%) (Inhibition) (MBHA with DNA substrate): 24.2%

CCS(=O)(=O)Nc1ccc(Nc2c3ccccc3nc3ccccc23)c(OC)c1.CS(=O)(=O)O [Compound 243928]
Int.* (Ratio) (Interference) [1]: 0.87 Ratio | Inh. (%) (Inhibition) (MBHA with DNA substrate): 3.4%

CC(=O)OC[C@H]1O[C@@H](NC(=O)N(CCCl)N=O)[C@H](OC(C)=O)[C@@H](OC(C)=O)[C@@H]1OC(C)=O [Compound 245432]
Int.* (Ratio) (Interference) [1]: 1.06 Ratio | Inh. (%) (Inhibition) (MBHA with DNA substrate): 37.4%

COc1cc(NS(C)(=O)=O)ccc1Nc1c2ccccc2nc2ccccc12 [Compound 249992]
Int.* (Ratio) (Interference) [1]: 1.08 Ratio | Inh. (%) (Inhibition) (MBHA with DNA substrate): 3.0%

CNC(=O)ON(C(C)=O)C(=O)NC [Compound 253272]
Int.* (Ratio) (Interference) [1]: 0.97 Ratio | Inh. (%) (Inhibition) (MBHA with DNA substrate): 5.5%

O=C([CH-]C(=O)C(F)(F)F)c1ccccc1.O=C([CH-]C(=O)C(F)(F)F)c1ccccc1.O=C([CH-]C(=O)C(F)(F)F)c1ccccc1.O=C([CH-]C(=O)C(F)(F)F)c1ccccc1.[Eu+3].c1ccncc1 [Compound 253995]
Int.* (Ratio) (Interference) [1]: 0.78 Ratio | Inh. (%) (Inhibition) (MBHA with DNA substrate): 2.4%

CO[C@H]1/C=C\C=C(/C)C(=O)NC2=CC(=O)C(N)=C(C[C@@H](C)C[C@H](OC)[C@H](O)[C@@H](C)/C=C(\C)[C@@H]1OC(N)=O)C2=O [Compound 255109]
Int.* (Ratio) (Interference) [1]: 0.77 Ratio | Inh. (%) (Inhibition) (MBHA with DNA substrate): 31.7%

CC(C)N.CC(C)N.[Cl-].[Cl-].[OH-].[OH-].[Pt] [Compound 256927]
Int.* (Ratio) (Interference) [1]: 1.02 Ratio | Inh. (%) (Inhibition) (MBHA with DNA substrate): −0.4%

Clc1ccccc1C(c1ccccc1)(c1ccccc1)n1ccnc1 [Compound 257473]
Int.* (Ratio) (Interference) [1]: 1.08 Ratio | Inh. (%) (Inhibition) (MBHA with DNA substrate): −8.4%
